Where two headings read alike, the source gives them in different places.
Assay: Mouse PK study (IV and PO), plasma parent compound and psilocin by LC-MS/MS
Format: in vivo
Conditions: male, C57Bl/6, mouse, plasma; for half-life / MRT inf / AUC(0-t) / Cmax / Tmax / AUC(0-inf): C(I) in plasma; for half-life: read-out: Apparent t1/2 (converted); for MRT inf: read-out: MRT0-inf; for AUC(0-t): read-out: AUC0-tlast; for Cmax: read-out: Cmax; for Tmax: read-out: tmax; for AUC(0-inf): read-out: AUC0-inf
Source text: Briefly, the procedure was as follows. […] 19, 2022.

[1] = iv, 1 mg/kg, 1 mg/kg i.v. C(I), per animal
[2] = oral, 1 mg/kg, 1 mg/kg oral C(I), Mean ± SD, read-out: Plasma concentration of C(I)
[3] = oral, 1 mg/kg, 1 mg/kg oral C(I), mean (n = 2), read-out: Plasma concentration of C(I)
[4] = oral, 1 mg/kg, 1 mg/kg oral C(I), per animal, BLQ <0.5 ng/mL, read-out: Plasma concentration of C(I)
[5] = oral, 3 mg/kg, 3 mg/kg oral C(I), Mean ± SD, read-out: Plasma concentration of C(I)
[6] = oral, 3 mg/kg, 3 mg/kg oral C(I), per animal, BLQ <0.5 ng/mL, read-out: Plasma concentration of C(I)
[7] = oral, 10 mg/kg, 10 mg/kg oral C(I), Mean ± SD, read-out: Plasma concentration of C(I)
[8] = oral, 10 mg/kg, 10 mg/kg oral C(I), per animal, BLQ <0.5 ng/mL, read-out: Plasma concentration of C(I)
[9] = po, 1 mg/kg, 1 mg/kg oral C(I), Mean ± SD
[10] = po, 3 mg/kg, 3 mg/kg oral C(I), Mean ± SD
[11] = po, 3 mg/kg, 3 mg/kg oral C(I), mean (n = 1)
[12] = po, 3 mg/kg, 3 mg/kg oral C(I), per animal
[13] = po, 10 mg/kg, 10 mg/kg oral C(I), Mean ± SD
[14] = po, 10 mg/kg, 10 mg/kg oral C(I), mean (n = 2)
[15] = po, 10 mg/kg, 10 mg/kg oral C(I), per animal

CN(C)CCc1c[nH]c2cccc(OC(=O)c3ccc(Br)cc3)c12 [C(I)]
half-life [1]: 1.14 h
MRT inf [1]: 0.568 h
concentration at 0.25 h [2]: 0.646 ± 0.251 ng/mL
concentration at 0.5 h [2]: 0.877 ± 0.376 ng/mL
concentration at 1 h [3]: 0.898 ng/mL
concentration at 1 h [4]: 0.775 ng/mL
concentration at 2 h [3]: 0.537 ng/mL
concentration at 2 h [4]: 0.474 ng/mL
concentration at 4 h (oral, 1 mg/kg, 1 mg/kg oral C(I), mean (n = 1), read-out: Plasma concentration of C(I)): 0.352 ng/mL
concentration at 4 h [4]: 0.352 ng/mL
concentration at 0.25 h [5]: 2.03 ± 0.37 ng/mL
concentration at 0.25 h [6]: 1.62 ng/mL
concentration at 0.5 h [5]: 2.03 ± 0.112 ng/mL
concentration at 0.5 h [6]: 1.95 ng/mL
concentration at 1 h [5]: 1.54 ± 0.206 ng/mL
concentration at 1 h [6]: 1.74 ng/mL
concentration at 2 h [5]: 0.786 ± 0.127 ng/mL
concentration at 2 h [6]: 0.932 ng/mL
concentration at 4 h [5]: 0.907 ± 0.357 ng/mL
concentration at 6 h [5]: 0.31 ± 0.0605 ng/mL
concentration at 6 h [6]: 0.371 ng/mL
concentration at 0.25 h [7]: 5.67 ± 1.77 ng/mL
concentration at 0.25 h [8]: 7.2 ng/mL
concentration at 0.5 h [7]: 8.14 ± 2.42 ng/mL
concentration at 0.5 h [8]: 6.41 ng/mL
concentration at 1 h [7]: 5.51 ± 1.85 ng/mL
concentration at 1 h [8]: 3.79 ng/mL
concentration at 2 h [7]: 2.59 ± 1.17 ng/mL
concentration at 4 h [7]: 2.26 ± 0.673 ng/mL
concentration at 4 h [8]: 1.71 ng/mL
concentration at 6 h [7]: 0.89 ± 0.265 ng/mL
concentration at 6 h [8]: 0.83 ng/mL
concentration at 8 h (oral, 10 mg/kg, 10 mg/kg oral C(I), 8 h, Mean ± SD, read-out: Plasma concentration of C(I)): 0.545 ± 0.481 ng/mL
AUC(0-t) [9]: 1.34 ± 1.02 ng·h/mL
Cmax [9]: 0.877 ± 0.376 ng/mL
Tmax [9]: 0.5 h
Tmax (po, 1 mg/kg, 1 mg/kg oral C(I), per animal): 0.5 h
AUC(0-t) [10]: 5.54 ± 0.33 ng·h/mL
Cmax [10]: 2.15 ± 0.195 ng/mL
Tmax [10]: 0.417 ± 0.144 h
AUC(0-inf) [11]: 6.87 ng·h/mL
half-life [11]: 3.01 h
MRT inf [11]: 4.12 h
half-life (po, 3 mg/kg, 3 mg/kg oral C(I), per animal, M43 estimate may not be accurate): 3.01 h
AUC(0-inf) [12]: 6.87 ng·h/mL
AUC(0-t) [12]: 5.26 ng·h/mL
Cmax [12]: 1.95 ng/mL
MRT inf [12]: 4.12 h
Tmax [12]: 0.5 h
AUC(0-t) [13]: 18.7 ± 4.25 ng·h/mL
Cmax [13]: 8.4 ± 2.17 ng/mL
Tmax [13]: 0.417 ± 0.144 h
AUC(0-inf) [14]: 20.2 ng·h/mL
half-life [14]: 1.31 h
MRT inf [14]: 2.53 h
AUC(0-inf) [15]: 16.3 ng·h/mL
AUC(0-t) [15]: 15.8 ng·h/mL
half-life [15]: 1.45 h
Cmax [15]: 7.2 ng/mL
MRT inf [15]: 2.66 h
Tmax [15]: 0.25 h

From patent US11746087B1, “C4-carboxylic acid-substituted tryptamine derivatives and methods of using” (priority 2022, dated 2023)
